Assay results from paper PMC2834671, “Differential activity of innate defense antimicrobial peptides against Nocardia species” (BMC Microbiology, 2010).
Positions of bridges follow the written chain, without caps; N, C: chain ends. Residues, ends and D or L forms follow the SMILES beside them. No end group written: not given here.

Key:
N. farcinica ATCC 3318 = experiment: Colony forming unit (CFU) assay against N. farcinica; type: cell-based, Nocardia farcinica; details: for LD90: lowest concentration leading to 90% reduction of CFU, 1 × 10^7 CFU/ml in 10 mM sodium phosphate buffer pH 7.4 + 1% MHB, means of at least four (levofloxacin, HNP 1-3, LL-37, hBD-3) or two (indolicidin, LAP, TAP) independent experiments
Experimental: (§1) Four strains of the genus Nocardia were investigated: Nocardia farcinica (ATCC 3318), Nocardia nova (ATCC 33726), Nocardia asteroides (ATCC 19247) and Nocardia brasiliensis (ATCC 19296). Strains were grown on Columbia blood agar for at least 72 hours at 37°C. Then 30 ml of Mueller-Hinton-broth (MHB) supplemented with 1% Tween 80 (Serva, Heidelberg, Germany) was inoculated with one loop of bacteria scraped off the agar plates. MHB was incubated in a shake incubator (220 rpm at 37°C). 10 ml of the culture was transferred to a 50 ml tube which contained 1 mm glass beads (BioSpec Products, Bartlesville, USA). After vortexing for 10-15 seconds a homogenous suspension could be gained. A few millilitres of the suspension were used to inoculate another 50 ml of MHB (also supplemented with 1% Tween 80). Cultures were incubated until mid-logarithmic phase was reached. Incubation times were different for each Nocardia species (N. farcinica 12 h, N. nova 24 h, N. asteroides 16 h, N. brasiliensis 72 h).
(§2) A colony forming unit (CFU) assay was established and performed to test AMP susceptibility. Mid-logarithmic growth phase cultures were washed twice in 10 mM sodium phosphate buffer (ph 7.4). A standard inoculum of 1 × 10^7CFU/ml in 10 mM sodium phosphate buffer supplemented with 1% MHB was prepared. 80 μl of the standard inoculum were incubated with 20 μl of the respective concentrations of the antimicrobial agents in the shake incubator at 37°C for 12 h (N. farcinica) to 16 h (N. nova, N. asteroides and N. brasiliensis). Incubation was carried out in 2 ml tubes (Eppendorf, Hamburg, Germany) which were occluded by LidBacs (Eppendorf, Hamburg, Germany) to avoid contamination and provide constant aerobic conditions. After incubation serial dilutions were plated on Mueller-Hinton agar plates and visible colonies were counted after 48-72 hours of incubation at 37°C. Killing was expressed in percentage of bacteria that were killed by incubation with respective peptide concentrations compared to incubation with solvent of the antibacterial substance (0,01% acetic acid or water). LD90 denotes the lowest peptide concentration leading to a =90% reduction of CFU counts. […] Killing activity (CFU counts after incubation with solvent vs. CFU counts after incubation with highest concentration of AMPs or levofloxacin) was analysed by Student's t-test. A p-value < 0.05 was considered significant.

N. nova ATCC 33726 = experiment: Colony forming unit (CFU) assay against N. nova; type: cell-based, Nocardia nova; details: for killing/CFU reduction in percent ± SD: ATCC 33726, 16 h; for LD90: lowest concentration leading to 90% reduction of CFU, 1 × 10^7 CFU/ml in 10 mM sodium phosphate buffer pH 7.4 + 1% MHB, 37°C, means of at least four or two (indolicidin) independent experiments; for LD90 / antinocardial activity (in words): 16 h; for antinocardial activity (in words): CFU assay
Experimental: as §1, §2

N. asteroides ATCC 19247 = experiment: Colony forming unit (CFU) assay against N. asteroides; type: cell-based, Nocardia asteroides; details: for LD90: lowest concentration leading to 90% reduction of CFU, 1 × 10^7 CFU/ml in 10 mM sodium phosphate buffer pH 7.4 + 1% MHB, means of at least four or two (indolicidin) independent experiments; for antinocardial activity (in words): CFU assay
Experimental: as §1, §2

[1] = system: N. brasiliensis ATCC 19296; experiment: Colony forming unit (CFU) assay against N. brasiliensis; type: cell-based, Nocardia brasiliensis; details: for LD90: lowest concentration leading to 90% reduction of CFU, 1 × 10^7 CFU/ml in 10 mM sodium phosphate buffer pH 7.4 + 1% MHB, means of at least four or two (indolicidin, LAP, TAP) independent experiments; for antinocardial activity (in words) / growth of N. brasiliensis after incubation (in words): CFU assay; for antinocardial activity (in words): concentrations up to 64 μg/ml; for growth of N. brasiliensis after incubation (in words): data not shown
Experimental: as §1, §2

[2] = at the LD90 concentration, 12 h, 37°C, mean ± SD of at least four or two (indolicidin, LAP, TAP) independent experiments
[3] = at the LD90 concentration, 16 h, 37°C, mean ± SD of at least four or two (indolicidin) independent experiments

CC[C@H](C)[C@H](N)C(=O)N[C@@H](CC(C)C)C(=O)N1CCC[C@H]1C(=O)N[C@@H](Cc1c[nH]c2ccccc12)C(=O)N[C@@H](CCCCN)C(=O)N[C@@H](Cc1c[nH]c2ccccc12)C(=O)N1CCC[C@H]1C(=O)N[C@@H](Cc1c[nH]c2ccccc12)C(=O)N[C@@H](Cc1c[nH]c2ccccc12)C(=O)N1CCC[C@H]1C(=O)N[C@@H](Cc1c[nH]c2ccccc12)C(=O)N[C@@H](CCCNC(=N)N)C(=O)N[C@@H](CCCNC(=N)N)C(N)=O [indolicidin]
killing/CFU reduction in percent ± SD (N. farcinica ATCC 3318; ATCC 3318, 12 h): 96.7 ± 1.7%
LD90 (N. farcinica ATCC 3318; 37°C, 12 h): 16 µg/mL
killing/CFU reduction in percent ± SD (N. nova ATCC 33726): 90.5 ± 3.4%
LD90 (N. nova ATCC 33726): 8 µg/mL
killing/CFU reduction in percent ± SD (N. asteroides ATCC 19247; ATCC 19247, 16 h): 99.1 ± 0.6%
LD90 (N. asteroides ATCC 19247; 37°C, 16 h): 64 µg/mL
killing/CFU reduction in percent ± SD ([1]; ATCC 19296, 16 h): 92.9 ± 2.1%
LD90 ([1]; 37°C, 16 h): 64 µg/mL

LAP: bovine β-defensin lingual antimicrobial peptide, synthesized and oxidatively folded (VRNSQSCRRNKGICVPIRCPGSMRQIGTCLGAQVKCCRRK; disulfide (positions not given here); UniProt Q28880 25-64, looked up)
killing/CFU reduction in percent ± SD (N. farcinica ATCC 3318; [2]): 92.9 ± 7.1%
LD90 (N. farcinica ATCC 3318; 37°C, 12 h): 16 µg/mL
antinocardial activity (in words) ([1]; 16 h): resistant
growth of N. brasiliensis after incubation (in words) ([1]; 16 h): pronounced growth
LD90 ([1]; 37°C, 16 h): >64 µg/mL

C[C@H]1COc2c(N3CCN(C)CC3)c(F)cc3c(=O)c(C(=O)O)cn1c23 [Levofloxacin, reference compound]
antinocardial activity (in words) (N. farcinica ATCC 3318; CFU assay, 12 h): dose-dependent activity
killing/CFU reduction in percent ± SD (N. farcinica ATCC 3318; [2]): 92.3 ± 3.8%
LD90 (N. farcinica ATCC 3318; 37°C, 12 h): 8 µg/mL
antinocardial activity (in words) (N. nova ATCC 33726): dose-dependent activity
LD90 (N. nova ATCC 33726): >32 µg/mL
antinocardial activity (in words) (N. asteroides ATCC 19247; 16 h): dose-dependent activity
killing/CFU reduction in percent ± SD (N. asteroides ATCC 19247; [3]): 92.6 ± 3.8%
LD90 (N. asteroides ATCC 19247; 37°C, 16 h): 8 µg/mL
antinocardial activity (in words) ([1]; 16 h): dose-dependent activity
killing/CFU reduction in percent ± SD [1, 3]: 96.6 ± 2.2%
LD90 ([1]; 37°C, 16 h): 32 µg/mL

GIINTLQKYYCRVRGGRCAVLSCLPKEEQIGKCSTRGRKCCRRKK (disulfide 11-40, 18-33, 23-41 (inferred)) [hBD-3]
killing/CFU reduction in percent ± SD (N. farcinica ATCC 3318; ATCC 3318, 12 h): 92.5 ± 5.3%
LD90 (N. farcinica ATCC 3318; 37°C, 12 h): 16 µg/mL
killing/CFU reduction in percent ± SD (N. nova ATCC 33726): 95.2 ± 1.7%
antinocardial activity (in words) (N. nova ATCC 33726): more potent against N. nova than levofloxacin
LD90 (N. nova ATCC 33726): 16 µg/mL
antinocardial activity (in words) (N. asteroides ATCC 19247; 16 h): did not show antinocardial activity
LD90 (N. asteroides ATCC 19247; 37°C, 16 h): >64 µg/mL
antinocardial activity (in words) ([1]; 16 h): resistant
growth of N. brasiliensis after incubation (in words) ([1]; 16 h): stronger growth
LD90 ([1]; 37°C, 16 h): >64 µg/mL

CC[C@H](C)[C@H](NC(=O)[C@H](CCCCN)NC(=O)[C@H](CCC(=O)O)NC(=O)[C@H](CCCCN)NC(=O)[C@H](CO)NC(=O)[C@H](CCCCN)NC(=O)[C@H](CCCNC(=N)N)NC(=O)[C@H](Cc1ccccc1)NC(=O)[C@H](Cc1ccccc1)NC(=O)[C@H](CC(=O)O)NC(=O)CNC(=O)[C@H](CC(C)C)NC(=O)[C@@H](N)CC(C)C)C(=O)NCC(=O)N[C@@H](CCCCN)C(=O)N[C@@H](CCC(=O)O)C(=O)N[C@@H](Cc1ccccc1)C(=O)N[C@@H](CCCCN)C(=O)N[C@@H](CCCNC(=N)N)C(=O)N[C@H](C(=O)N[C@H](C(=O)N[C@@H](CCC(N)=O)C(=O)N[C@@H](CCCNC(=N)N)C(=O)N[C@H](C(=O)N[C@@H](CCCCN)C(=O)N[C@@H](CC(=O)O)C(=O)N[C@@H](Cc1ccccc1)C(=O)N[C@@H](CC(C)C)C(=O)N[C@@H](CCCNC(=N)N)C(=O)N[C@@H](CC(N)=O)C(=O)N[C@@H](CC(C)C)C(=O)N[C@H](C(=O)N1CCC[C@H]1C(=O)N[C@@H](CCCNC(=N)N)C(=O)N[C@H](C(=O)N[C@@H](CCC(=O)O)C(=O)N[C@@H](CO)C(=O)O)[C@@H](C)O)C(C)C)[C@@H](C)CC)C(C)C)[C@@H](C)CC [LL-37]
CFU reduction (N. farcinica ATCC 3318; 16 μg/ml peptide alone, single assay (Figure 2)): 68.5%
antinocardial activity (in words) (N. nova ATCC 33726): more potent against N. nova than levofloxacin
LD90 (N. nova ATCC 33726): 32 µg/mL
antinocardial activity (in words) (N. asteroides ATCC 19247; 16 h): did not show antinocardial activity
LD90 (N. asteroides ATCC 19247; 37°C, 16 h): >64 µg/mL
antinocardial activity (in words) ([1]; 16 h): resistant
growth of N. brasiliensis after incubation (in words) ([1]; 16 h): stronger growth
LD90 ([1]; 37°C, 16 h): >64 µg/mL

CC[C@H](C)[C@@H]1NC(=O)CNC(=O)[C@H](CCCCN)NC(=O)[C@H](CC(N)=O)NC(=O)[C@H](CCCNC(=N)N)NC(=O)[C@H](C(C)C)NC(=O)[C@@H](NC(=O)[C@H](CO)NC(=O)[C@@H](NC(=O)[C@@H]2CCCN2C(=O)[C@@H](N)CC(N)=O)C(C)C)CSSC[C@@H]2NC(=O)[C@H](CCCCN)NC(=O)[C@H](C(C)C)NC(=O)[C@H](C)NC(=O)[C@H](CCCNC(=N)N)NC(=O)CNC(=O)[C@H](C(C)C)NC(=O)[C@@H]3CSSC[C@H](NC1=O)C(=O)N[C@@H](C(C)C)C(=O)N1CCC[C@H]1C(=O)N[C@@H]([C@@H](C)CC)C(=O)N[C@@H](CCCNC(=N)N)C(=O)N[C@@H](CSSC[C@@H](C(=O)N[C@@H](CCCNC(=N)N)C(=O)N[C@@H](CCCCN)C(=O)N[C@@H](CCCCN)C(=O)O)NC2=O)C(=O)N1CCC[C@H]1C(=O)NCC(=O)N[C@@H](CO)C(=O)N[C@@H](CCSC)C(=O)N[C@@H](CCCCN)C(=O)N[C@@H](CCC(N)=O)C(=O)N[C@@H]([C@@H](C)CC)C(=O)NCC(=O)N[C@@H]([C@@H](C)O)C(=O)N3 [TAP] (H-NPVSCVRNKGICVPIRCPGSMKQIGTCVGRAVKCCRKK-OH; disulfide 5-34, 12-27, 17-35 (inferred); N-terminus and C-terminus assumed)
killing/CFU reduction in percent ± SD (N. farcinica ATCC 3318; [2]): 94 ± 5.1%
LD90 (N. farcinica ATCC 3318; 37°C, 12 h): 32 µg/mL
antinocardial activity (in words) ([1]; 16 h): resistant
growth of N. brasiliensis after incubation (in words) ([1]; 16 h): pronounced growth
